Two compounds from patent publication US9737602B2, “Carotenoid particles and uses thereof” (IP SCIENCE LIMITED, priority 2011, dated 2017) can be followed below.

Data set [1] in a line: Clinical trial in CHD patients: total serum cholesterol. Type of data set: in vivo, human. On the procedure: (§1) 20 Coronary Heart Disease (CHD) patients who were positive for anti-Chlamydia IgG and hypercholesterolaemia were identified. These patients were randomised in 4 groups of 5 patients, and each of them received daily either in: • 1st group—7 mg of lycopene supplement (in 70 mg of tomato oleoresin), or • 2nd group—[…] of WP, or • 3rd group—mechanical mixture of 7 mg of lycopene (in 70 mg of tomato oleoresin), and 70 mg of WP, or • 4th group—WP-Lycosome comprising of 7 mg of lycopene (in 70 mg of tomato oleoresin) and 70 mg of WP.
(§2) Serum anti-Chlamydia IgG and total serum cholesterol were measured after 4 weeks.

A short description of data set [2]: clinical. Type of data set: in vivo, human. As to the method: as §1
Data set [3] concerns Chlamydia pneumoniae. Put plainly: Clinical trial in CHD patients: serum anti-Chlamydia IgG (IgG-ELISA). The note with it: for Chlamydia pneumoniae load in IgG-ELISA, ELISA reading: below 0.300-0.400 is considered negative. Type of data set: in vivo, human. On the procedure: as §1, §2
In general terms: An ELISA detects its analyte on a solid surface through an enzyme-linked reagent.

Data set [4] in a line: Pharmacokinetic study on volunteers: unmodified trans-resveratrol in blood. Type of data set: in vivo. Conditions: human, serum, po, 100 mg, 100 mg trans-Resveratol oral, individual volunteers ID 1, 2, read-out: AUC for 24 hours. On the procedure:
The group of 5 volunteers comprised of 2 female and 3 male clinically healthy Caucasian persons, age between 23 and 35 years. They were asked, before commencing this experiment, to go for 3-4 days “wash-out”, when consumption of any grape, wine, peanut, chocolate and other products which might contain them.
Blood samples were taken from their median cubital or cephalic veins at the baseline point. […]
After taking blood its serum was separated, aliquoted and stored at −80° C. for further testing.

Setting [5] is: difference after 4 weeks of administration.

Structures are written as SMILES.

Regarding `CC(C)=CCC/C(C)=C/C=C/C(C)=C/C=C/C(C)=C/C=C/C=C(C)/C=C/C=C(C)/C=C/C=C(\C)CCC=C(C)C` [GA Lycopene, lycopene], the “Total serum Cholesterol” value in data set [1] (0 w) came to 5.4 ± 0.23 mmol/L; in data set [1] (4 w), 4.7 ± 0.21 mmol/L. The “reduction of serum cholesterol” value in data set [1] (after 4 weeks) worked out at 0.7 mmol/L. Besides, the “Total serum Cholesterol, Δ” value in data set [1] (setting [5]) was -0.7 mmol/L. In addition, in data set [2] (setting [5]), the “Total serum Lycopene, Δ” value is “+116 ng/ml”. Besides, the concentration at 0 w in data set [2] (human, in vivo) came out at 179 ± 21 ng/mL. Further, the concentration at 4 w in data set [2] (human, in vivo) was 295 ± 23 ng/mL. Also, the “number of sero-positive patients” value in data set [3] (0 w) is 10; in data set [3] (1 w) it was “(10)”; in data set [3] (2 w), “(4)”; in data set [3] (3 w) it was “(2)”; in data set [3] (4 w), 0. Moreover, the “Chlamydia pneumoniae load in IgG-ELISA, ELISA reading” value stood at 0.997 ± 0.098 in data set [3] (0 w, CHD patients) and 0.288 ± 0.043 in data set [3] (4 w of daily administration). In addition, the “time by which all patients were sero-negative / anti-Chlamydia IgG cleared from serum” value in data set [3] (4-week trial) is given as “in the last week of the trial”. The “effect on level of Chlamydia infection (specific IgG), in words” value in data set [3] (CHD patients, daily for 4 weeks) is “some ability to reduce Chlamydia infection”.

The term AUC denotes concentration integrated over time. With `Oc1ccc(/C=C/c2cc(O)cc(O)c2)cc1` [Resveratrol, 3,5,4′-trihydroxy-trans-stilbene], the exposure (AUC) in data set [4] amounted to 432 ng·h/mL.
